According to patent US8124609B2, “Acyclic nucleoside derivatives” (Medivir AB, priority 1996, dated 2012):

Columns and labels:
Format in all cases: in vivo
[1] = Bioavailability testing in rats (24 h urinary H2G recovery); settings: rat; for Bioavailability (Table 2): 0.1 mmol/kg per oral, 24 hour urinary H2G recovery as percentage of recovery after 0.1 mmol/kg i.v. H2G
Procedure: The bioavailability of compounds of the invention were compared to the parent compound H2G and other H2G derivatives in a rat model. Compounds of the invention and comparative compounds were administered, per oral (by catheter into the stomach), to multiples of three individually weighed animals to give 0.1 mmol/kg of the dissolved prod rug in an aqueous (Example 4, 5, Comparative example 1-3, 5, 8), peanut oil (Comparative examples 4, 9, 10) or propylene glycol (Example 1-3, 6-12, 17, Comparative example 6, 7) vehicle dependent on the solubility of the test compound ingredient. The animals were fasted from 5 hours before to approximately 17 hours after administration and were maintained in metabolic cages. Urine was collected for the 24 hours following administration and frozen until analysis. H2G was analysed in the urine using the HPLC/UV assay of Stahle & Öberg, Antimicrob Agents Chemother. 36 No 2, 339-342 (1992), modified as follows: samples upon thawing are diluted 1:100 in aq dist H2O and filtered through an amicon filter with centrifugation at 3000 rpm for 10 minutes. Duplicate 30 μl samples are chromatographed on an HPLC column; Zorbax SB-C18; 75×4.6 mm; 3.5 micron; Mobile phase 0.05M NH4PO4, 3-4% methanol, pH 3.3-3.5; 0.5 ml/min; 254 nm, retention time for H2G at MeOH 4% and pH 3.33, ˜12.5 min. Bioavailability is calculated as the measured H2G recovery from each animal averaged over at least three animals and expressed as a percentage of the averaged 24 hour urinary H2G recovery from a group of 4 individually weighed rats respectively injected i.vjugularis with 0.1 mmol/kg H2G in a Ringer's buffer vehicle and analysed as above.
Comparative example 1 (H2G) was from the same batch as used for preparation of Examples 1 to 12. The preparation of Comparative example 2 (monoVal-H2G) and 3 (diVal-H2G) are shown in Examples 21 and 23. […] Comparative examples 5 & 8 (Val/Ac H2G) were prepared analogously to Example 4 using acetic anhydride with relevant monovaline H2G. […]

[2] = Plasma concentrations in rats (plasma drug assay, H2G AUC oral vs i.v.); settings: rat, 10 mg/kg oral dose in propylene glycol, plasma H2G AUC vs 10 mg/kg intravenous H2G
Procedure: A plasma concentration assay was done in male Sprague Dawley derived rats. The animals were fasted overnight prior to dosing but were permitted free access to water. Each of the compounds evaluated was prepared as a solution/suspension in propylene glycol at a concentration corresponding to 10 mg H2G/ml and shaken at room temperature for eight hours. Groups of rats (at least 4 rats in each group) received a 10 mg/kg (1 ml/kg) oral dose of each of the compounds; the dose was administered by gavage. At selected time points after dosing (0.25, 0.5, 1, 1.5, 2, 4, 6, 9, 12, 15, and 24 hours after dosing), heparinized blood samples (0.4 ml/sample) were obtained from a tail vein of each animal. The blood samples were immediately chilled in an ice bath. Within two hours of collection, the plasma was separated from the red cells by centrifugation and frozen till analysis. The components of interest were separated from the plasma proteins using acetonitrile precipitation. Following lyophilisation, and reconstitution, the plasma concentrations were determined by reverse phase HPLC with fluorescence detection. The oral uptake of H2G and other test compounds was determined by comparison of the H2G area under the curve derived from the oral dose compared to that obtained from a 10 mg/kg intravenous dose of H2G, administered to a separate group of rats. The results are depicted in Table 1B above.

[3] = tested on: Herpes simplex virus-1 (HSV-1); assay: Antiviral activity in HSV-1-infected mouse (survival); settings: 21 and 83 mg/kg p.o. three times daily for 5 days, relative to equivalent dose of acyclovir
Procedure: Herpes simplex virus-1 (HSV-1)-infected mouse serves as an animal model to determine the efficacy of antiviral agents in vivo. Mice inoculated intraperitoneally with HSV-1 at 1000 times the LD50 were administered either with a formulation comprising the currently marketed anti-herpes agent acyclovir (21 and 83 mg/kg in a 2% propylene glycol in sterile water vehicle, three times daily, p.o.) or the compound of Example 29 (21 and 83 mg/kg in a 2% propylene glycol in sterile water vehicle, three times daily, p.o.) for 5 consecutive days beginning 5 hours after inoculation. The animals were assessed daily for deaths. […] In the legend, the compound of the invention is denoted Ex. 29 and acyclovir is denoted ACV.

Bioavailability (Table 2) [1]	Bioavailability (Table 1A) ([1]; oral, urinary recovery assay of H2G, relative to i.v. H2G)	Bioavailability (Table 1B) [2]	Compound	percentage of mice surviving the HSV-1 infection [3]
8%	8%	3.8%	Nc1nc2c(ncn2CC(CO)CCO)c(=O)[nH]1 (centres unmarked) [Comparative example 1, 9-[4-hydroxy-(2-hydroxymethyl)butyl]guanine]	–
52%	–	–	CC(=O)CCCC(=O)OC[C@H](CCOC(=O)[C@@H](N)C(C)C)Cn1cnc2c(=O)[nH]c(N)nc21 [Example 10]	–
–	–	–	CCCCCCCCCCCCCCCCCC(=O)OC[C@H](CCOC(=O)[C@@H](N)C(C)C)Cn1cnc2c(=O)[nH]c(N)nc21.Cl [Example 29]	significantly greater
